Results taken from patent US11389449B2, “Treatment of metabolic syndrome with an sGC stimulator” (Cyclerion Therapeutics, Inc., priority 2017, dated 2022).
Entries after “also recorded” stand apart in the source; their conditions may differ.

Tested on: patients with stable type 2 diabetes and hypertension
Assay: Randomized placebo-controlled Phase 2a study of 2 dose regimens (NCT03091920), metabolic assessments
Type: in vivo, human
Conditions: for Apolipoprotein B Change LS Mean / Apolipoprotein B LS Mean Diff (placebo adjusted): serum; for serum triglycerides LS Mean Diff (placebo adjusted) / serum triglycerides LS Mean reduction from baseline: Day 15
Method: The serum ApoB level was determined using microsphere-based HSP-ApoB assay, consisting of using antigen-specific antibodies optimized in a capture-sandwich format. 5 μL of a diluted mixture of capture-antibody microspheres were mixed with 5 μL bloker and 10 μL standard, pre-diluted sample, or control in a hard-bottom microtiter plate. Plama and serum samples were diluted of the appropriate dilution. The plate was incubated for 1 hour at room temperature. 10 μL biotinylated detection antibody was added to each well, thoroughly-mixed and incubated for 1 hour. 10 μL diluted Streptavidin-phycoerythrin was added to each well, thoroughly mixed, and incubated for 60 minutes. A filter-membrane microtiter plate was pre-wetted by adding 100 μL wash buffer followed by aspiration via a vaccum manifoled device. The reaction contents of the hard-bottom plate were then transferred to the respective wells of the filter plate. All wells were vacuum aspirated and the contents were washed twice with 100 μL wash buffer. After the last wash, 100 μL wash buffer was added to each well, and the washed microspheres were resuspended with thorough mixing. The plate was then analyzed on the Luminex platform.
Plasma ADMA concentrations were determined by liquid chromatography and tandem mass spectrometry (LC-MS/MS). Plasma samples of the patients were collected in a purple-top container with K2 EDTA anticoagulant. The tube was filled completely and the sample was mixed well and separated by centrifugation. A minium volume of 0.20 mL was needed for testing and the plasma sample was extracted by a simple protein precipation. The supernatant was then transferred to a diluent before analysis. The extract was analyzed using liquid chromatography (LC) with tandem mass spectrometry (MS/MS). The standard curve was 10.0 ng/mL to 1000.0 ng/mL.
The primary objectives of this clinical study (ClinicalTrials.gov Identifier: NCT03091920) were to compare the safety, tolerability, PK profile, and PD effects of 2 treatment regimens of Compound I tablet (40 mg per day, as 20 mg BID or as 40 mg QD) administered orally for 2 weeks to patients with stable type 2 diabetes mellitus and hypertension. Patients in this trial were on stable medications for glucose control (blood glucose lowering medication, antihyperglycemics) and hypertension (antihypertensives). Secondary measurements included assessment of fasting glucose levels, fasting insulin levels, hemoglobin A1C (HbA1C) levels, serum cholesterol levels, ApoB levels, HOMA-IR, ADMA concentrations, serum triglyceride levels, BMI, liver transaminases and body weight, among others.
Allocation: Randomized; Intervention Model: Parallel Assignment; Masking: Triple (Participant, Care Provider, Investigator); Masking Description: Double-Blind; Primary Purpose: Treatment
This is a randomized, double-blind, placebo-controlled study consisting of 3 distinct periods (see FIG. 30).
13 male patients and 13 female patientes with stable type 2 diabetes and hypertension were enrolled. Patients were randomized in a 5:5:3 ratio (QD:BID:Placebo) to receive 1 of 2 Compound I treatment regimens or placebo (all regimens were masked) as outlined in the table above.
Clinic Period: The Clinic Period began at Check-in on Day-2 (2 days before dosing) and ended at the time of Discharge on Day 15. During the 17-day Clinic Period, patients were confined to the Study Center and received a standard diet for diabetics. Patients who met eligibility criteria based on Screening Visit assessments were admitted to the Study Center on Day-2 for baseline procedures. On the morning of Day 1 (there is no Day 0), eligible patients were randomized in a 5:5:3 ratio to 1 of 3 masked treatment regimens: QD/QD, BID/QD, or PBO/PBO. On Days 1 to 14, patients received a morning (AM) dose and an evening (PM) dose.
Compound I was administered as multiples of a 5 mg oral tablet dosage form. Placebo was administered as multiples of a 5 mg tablet. […]

[1] = 40 mg, regimens combined, 14 days
[2] = subgroup of 18 patients on concomitant statin therapy, regimens combined, 14 days

Question: With `OC(CNc1nc(-c2cc(-c3ccon3)n(Cc3ccccc3F)n2)ncc1F)(C(F)(F)F)C(F)(F)F` [Compound I] as the compound, how does the HDL cholesterol levels (40 mg total daily dose, over the trial) read?
Answer: remained unchanged; also recorded: remained closed to baseline; also recorded: no changes

Question: And the “mean serum ALT decrease from baseline” value [1]?
Answer: 4.9 IU/L

Question: And the “mean serum AST decrease from baseline” value [1]?
Answer: 4.5 IU/L

Question: And the “mean serum GGT decrease from baseline” value [1]?
Answer: 2.4 U/L

Question: And the “Mean Apo-B levels decline in treated patients” value (14 days)?
Answer: approximately 17%

Question: What about the “HbA1C levels over placebo” value (14 days of treatment) of the same compound?
Answer: No meaningful improvements

Question: What about the “plasma fasting glucose LS Mean reduction from baseline” value (BID/QD (20 mg BID days 1-7; 40 mg QD days 8 to 14), day 15) of the same compound?
Answer: -35.3 mg/dL

Question: And the “Apolipoprotein B Change LS Mean” value (BID/QD (N = 10), day 15)?
Answer: -219.4 µg/mL

Question: And the “serum triglycerides LS Mean Diff (placebo adjusted)” value (“serum triglycerides LS Mean Diff” for short) (BID/QD)?
Answer: -14.3 mg/dL

Question: And the “serum triglycerides LS Mean reduction from baseline” value (BID/QD)?
Answer: -46.4 mg/dL

Question: And the “LDL cholesterol Mean Diff (SE), placebo adjusted” value (shortened to “LDL cholesterol Mean Diff (SE)”) (BID/QD, day 15)?
Answer: −20.2 (9.2) mg/dL

Question: And the “LDL cholesterol Mean reduction from baseline (SE), least square” value (BID/QD, day 15)?
Answer: −14.0 (5.6) mg/dL

Question: What about the “plasma fasting glucose LS Mean Diff (placebo adjusted)” value (“plasma fasting glucose LS Mean Diff” below) (BID/QD, day 15) of the same compound?
Answer: -15.6 mg/dL

Question: And the “serum cholesterol LS Mean Diff (placebo adjusted)” value (“serum cholesterol LS Mean Diff” for short) (BID/QD, day 15)?
Answer: -20.9 mg/dL

Question: And the “serum cholesterol LS Mean reduction from baseline” value (BID/QD, day 15)?
Answer: -20.2 mg/dL

Question: What about the “serum LDL cholesterol reduced when compared to placebo” value (“serum LDL cholesterol reduced when” for short) (BID/QD, day 15, after 14 days of treatment) of the same compound?
Answer: about 20 mg/dL

Question: And the “serum LDL cholesterol reduced when” value (BID/QD, day 15, % of total cholesterol)?
Answer: 13%

Question: What about the “Apolipoprotein B LS Mean Diff (placebo adjusted)” value (BID/QD, day 15) of the same compound?
Answer: -168.9 µg/mL

Question: And the “plasma fasting glucose LS Mean reduction from baseline” value (Combined group (BID/QD and QD/QD), day 15)?
Answer: -32.5 mg/dL

Question: And the “serum triglycerides LS Mean Diff” value (Combined group)?
Answer: -14.2 mg/dL

Question: And the “serum triglycerides LS Mean reduction from baseline” value (Combined group)?
Answer: -46.2 mg/dL

Question: And the “LDL cholesterol Mean Diff (SE)” value (Combined group, day 15)?
Answer: −20.2 (8.3) mg/dL

Question: What about the “LDL cholesterol Mean reduction from baseline (SE), least square” value (Combined group, day 15) of the same compound?
Answer: −13.9 (4.0) mg/dL

Question: What about the “plasma fasting glucose LS Mean Diff” value (Combined group, day 15) of the same compound?
Answer: -12.8 mg/dL

Question: What about the “serum cholesterol LS Mean Diff” value (Combined group, day 15) of the same compound?
Answer: -25.5 mg/dL

Question: And the “serum cholesterol LS Mean reduction from baseline” value (Combined group, day 15)?
Answer: -24.7 mg/dL

Question: And the “Apolipoprotein B Change LS Mean” value (Overall 40 mg Total Daily Dose (N = 20), day 15)?
Answer: -169.5 µg/mL

Question: What about the “plasma fasting glucose LS Mean reduction from baseline” value (QD/QD (40 mg QD days 1 to 14), day 15) of the same compound?
Answer: -29.6 mg/dL

Question: And the “Apolipoprotein B Change LS Mean” value (QD/QD (N = 10), day 15)?
Answer: -119.6 µg/mL

Question: What about the “serum triglycerides LS Mean Diff” value (QD/QD) of the same compound?
Answer: -14.0 mg/dL

Question: And the “serum triglycerides LS Mean reduction from baseline” value (QD/QD)?
Answer: -46.0 mg/dL

Question: And the “LDL cholesterol Mean Diff (SE)” value (QD/QD, day 15)?
Answer: −19.9 (9.2) mg/dL

Question: What about the “LDL cholesterol Mean reduction from baseline (SE), least square” value (QD/QD, day 15) of the same compound?
Answer: −13.7 (5.6) mg/dL

Question: And the “plasma fasting glucose LS Mean Diff” value (QD/QD, day 15)?
Answer: -10.0 mg/dL

Question: And the “serum cholesterol LS Mean Diff” value (QD/QD, day 15)?
Answer: -30.1 mg/dL

Question: And the “serum cholesterol LS Mean reduction from baseline” value (QD/QD, day 15)?
Answer: -29.3 mg/dL

Question: What about the “serum LDL cholesterol reduced when” value (QD/QD, day 15, after 14 days of treatment) of the same compound?
Answer: about 20 mg/dL

Question: And the “serum LDL cholesterol reduced when” value (QD/QD, day 15, % of total cholesterol)?
Answer: 13%

Question: And the “Apolipoprotein B LS Mean Diff (placebo adjusted)” value (QD/QD, day 15)?
Answer: -69.1 µg/mL

Question: And the “fasting plasma insulin levels over placebo” value (all of 26 patients, including those on insulin therapy)?
Answer: no meaningful improvements

Question: And the “ADMA plasma concentration decrease from baseline” value (combined Compound I group, 14 day study, baseline of 105 ng/ml)?
Answer: 8.7 ng/mL

Question: And the “ADMA plasma concentration mean reduction adjusted to placebo” value (combined group, after 14 days of treatment)?
Answer: about 11 ng/mL

Question: And the “serum ALT change compared to baseline” value (over 14 days)?
Answer: −4.9 IU/L

Question: And the “serum ALT reduction compared to baseline” value (over 14 days)?
Answer: 20%

Question: What about the “serum AST change compared to baseline” value (over 14 days) of the same compound?
Answer: −4.5 IU/L

Question: What about the “serum AST reduction compared to baseline” value (over 14 days) of the same compound?
Answer: 20%

Question: And the “weight or BMI, adjusted to placebo” value (over the 14 days of treatment)?
Answer: No meaningful changes

Question: What about the “fasting plasma insulin change adjusted to placebo” value (patients not on insulin) of the same compound?
Answer: -13 pmol/L

Question: And the “reduction in HOMA-IR from baseline” value (patients not taking concomitant insulin (12 on Compound I), 14 days)?
Answer: 36%

Question: And the “reduction in HOMA-IR adjusted to placebo” value (patients not taking concomitant insulin, 14 days)?
Answer: 23%

Question: And the “apolipoprotein B decline, Compound I vs. PBO-treated patients” value (post-hoc analysis, 14 days)?
Answer: -119 µg/mL

Question: What about the “LDL cholesterol decrease in treated vs. placebo patients” value [2] of the same compound?
Answer: -16 mg/dL

Question: What about the “total cholesterol decrease in treated vs. placebo patients” value [2] of the same compound?
Answer: -17 mg/dL

Question: What about the mean decrease of plasma blood glucose relative to placebo (subgroup using only oral antihyperglycemic agents without insulin, regimens combined, 14 days) of the same compound?
Answer: -19 mg/dL
